Where a SMILES comes first, the peptide text is derived from it. Bridges are numbered along the chain shown (N, C = ends). [ ]: non-standard residue; d: D form. The star is where a group is joined. ξ: configuration not given here. Phe(3-CF3) = N[C@@H](Cc1cccc(C(F)(F)F)c1)C(=O)O; Phe(4-COOH) = N[C@@H](Cc1ccc(C(=O)O)cc1)C(=O)O; Bip = N[C@@H](Cc1ccc(-c2ccccc2)cc1)C(=O)O; Phe(3-Me) = Cc1cccc(C[C@H](N)C(=O)O)c1; NH(CH2)12COOH = O=C(O)CCCCCCCCCCCCN*; Val(3-OH) = CC(C)(O)[C@H](N)C(=O)O; Cha = N[C@@H](CC1CCCCC1)C(=O)O; Cit = NC(=O)NCCC[C@H](N)C(=O)O; Ile(3ξ) = CCC(C)[C@H](N)C(=O)O; Thr(3ξ) = CC(O)[C@H](N)C(=O)O; 12Ado = NCCCCCCCCCCCC(=O)O; Carboxymethyl = O=C(O)C*; NMeA = CN[C@@H](C)C(=O)O; Orn = NCCC[C@H](N)C(=O)O; Aun = NCCCCCCCCCCC(=O)O; Dab = NCC[C@H](N)C(=O)O; Dap = NC[C@H](N)C(=O)O; AEEA = NCCOCCOCC(=O)O
Biological target: T1, PD-1/PD-L1 interaction (PE-labeled human PD-L1-Ig binding to Jurkat cell line over-expressing human PD-1) (Homo sapiens, UniProt Q15116)
T1 construct: expressed in transfected cells; host or cells: Jurkat
T1 sequence (Q15116 25-288): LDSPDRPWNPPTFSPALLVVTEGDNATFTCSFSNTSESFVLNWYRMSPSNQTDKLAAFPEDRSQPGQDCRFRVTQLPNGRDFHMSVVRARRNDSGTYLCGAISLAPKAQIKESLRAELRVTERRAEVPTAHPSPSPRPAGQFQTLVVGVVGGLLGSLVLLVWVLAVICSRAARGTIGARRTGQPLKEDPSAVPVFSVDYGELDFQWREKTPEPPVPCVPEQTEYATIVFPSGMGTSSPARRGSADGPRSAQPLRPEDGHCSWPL
Assay: Jurkat-PD-1 Cell Binding High-Content Screening Assay (CBA)
Details: Jurkat-hPD-1 cells, PE-labeled PD-L1-Ig 20 nM final; read-out: Jurkat HPD1 PDL1 IC50
Outline: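 Read-out: high-content imaging of cell-bound PE fluorescence, with Hoechst 33342 nuclear counterstain after paraformaldehyde fixation. Before labeled ligand (20 nM final, 1 h) was added, compound sat on the cells for 2 h at 37 °C in DMEM/10% FCS.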

Row | SMILES | IC50 [nM]
1 | COC[C@@H]1NC(=O)CSC[C@@H](C(=O)N[C@@H](CCN)C(=O)NCCCCCCCCCCCCC(=O)O)NC(=O)[C@H](CO)NC(=O)[C@H](C(C)(C)O)NC(=O)[C@H](CC2CCCCC2)NC(=O)[C@H](CCN)NC(=O)[C@@H](CC(C)C)NC(=O)[C@H](C)N(C)C(=O)[C@H](CCC(N)=O)NC(=O)[C@H](Cc2ccc(-c3ccccc3)cc2)NC(=O)[C@H](Cc2ccc(C(=O)O)cc2)NC(=O)[C@H](Cc2cccc(C(F)(F)F)c2)NC(=O)[C@H](CC(=O)O)NC(=O)[C@H](Cc2ccc(OCC(=O)O)cc2)NC1=O [Example 1136] ({CH2CO}-S(Me)Y(Carboxymethyl)D[Phe(3-CF3)][Phe(4-COOH)][Bip]Q[NMeA][dL][Dab][Cha][Val(3-OH)]SC[Dab]-{NH(CH2)12COOH}; thioether N-14) | 18.1
2 | CC(C)C[C@H]1NC(=O)[C@H](C)N(C)C(=O)[C@H](CCCNC(N)=O)NC(=O)[C@H](Cc2ccc(-c3ccccc3)cc2)NC(=O)[C@H](Cc2ccc(C(=O)O)cc2)NC(=O)[C@H](Cc2cccc(C(F)(F)F)c2)NC(=O)[C@H](CC(=O)O)NC(=O)[C@H](Cc2ccc(OCC(=O)O)cc2)NC(=O)[C@H](Cc2ccc(C(=O)O)cc2)NC(=O)CSC[C@@H](C(=O)N[C@@H](CCN)C(=O)NCCCCCCCCCCCCC(=O)O)NC(=O)[C@H](CCC(=O)O)NC(=O)[C@H](C(C)C)NC(=O)[C@H](CC2CCCCC2)NC(=O)[C@H](CCN)NC1=O [Example 1147] ({CH2CO}-[Phe(4-COOH)]Y(Carboxymethyl)D[Phe(3-CF3)][Phe(4-COOH)][Bip][Cit][NMeA][dL][Dab][Cha]VEC[Dab]-{NH(CH2)12COOH}; thioether N-14) | 13.2
3 | CC(C)C[C@@H]1NC(=O)[C@H](Cc2c[nH]c3ccccc23)NC(=O)[C@H](CC(=O)O)NC(=O)[C@H](Cc2ccc(C(=O)O)cc2)NC(=O)[C@H](Cc2ccc(OCC(=O)O)cc2)NC(=O)CSC[C@@H](C(=O)N[C@@H](CCCN)C(=O)NCCOCCOCC(=O)NCCCCCCCCCCC(=O)O)NC(=O)[C@@H](CO)NC(=O)[C@H](C(C)C)NC(=O)[C@H](CC2CCCCC2)NC(=O)[C@H](CCN)NC(=O)[C@@H](CC(C)C)NC(=O)[C@H](C)N(C)C(=O)[C@H](C(C)C)NC(=O)[C@H](Cc2ccc(-c3ccccc3)cc2)NC1=O [Example 1242] ({CH2CO}-Y(Carboxymethyl)[Phe(4-COOH)]DWL[Bip]V[NMeA][dL][Dab][Cha]V[dS]C[Orn][AEEA][Aun]-OH; thioether N-14) | 19.8
4 | CC(C)C[C@@H]1NC(=O)[C@H](Cc2c[nH]c3ccccc23)NC(=O)[C@H](CC(=O)O)NC(=O)[C@H](Cc2ccc(C(=O)O)cc2)NC(=O)[C@H](Cc2ccc(OCC(=O)O)cc2)NC(=O)CSC[C@@H](C(=O)N[C@@H](CCCN)C(=O)NCCOCCOCC(=O)NCCCCCCCCCCC(=O)O)NC(=O)[C@H](CN)NC(=O)[C@H](C(C)C)NC(=O)[C@H](CC2CCCCC2)NC(=O)[C@H](CCN)NC(=O)[C@@H](CC(C)C)NC(=O)[C@H](C)N(C)C(=O)[C@H](C(C)C)NC(=O)[C@H](Cc2ccc(-c3ccccc3)cc2)NC1=O [Example 2134] ({CH2CO}-Y(Carboxymethyl)[Phe(4-COOH)]DWL[Bip]V[NMeA][dL][Dab][Cha]V[Dap]C[Orn][AEEA][Aun]-OH; thioether N-14) | 32

Results, then the compound that gave them:

Row | IC50 [nM] | SMILES
5 | 30.4 | CC(C)C[C@@H]1NC(=O)[C@H](Cc2c[nH]c3ccccc23)NC(=O)[C@H](CC(=O)O)NC(=O)[C@H](Cc2ccc(C(=O)O)cc2)NC(=O)[C@H](Cc2ccc(OCC(=O)O)cc2)NC(=O)CSC[C@@H](C(=O)N[C@@H](CCCN)C(=O)NCCOCCOCC(=O)NCCCCCCCCCCC(=O)O)NC(=O)[C@H](CCCCN)NC(=O)[C@H](C(C)C)NC(=O)[C@H](CC2CCCCC2)NC(=O)[C@H](CCC(=O)O)NC(=O)[C@@H](CC(C)C)NC(=O)[C@H](C)N(C)C(=O)[C@H](C(C)C)NC(=O)[C@H](Cc2ccc(-c3ccccc3)cc2)NC1=O [Example 2137] ({CH2CO}-Y(Carboxymethyl)[Phe(4-COOH)]DWL[Bip]V[NMeA][dL]E[Cha]VKC[Orn][AEEA][Aun]-OH; thioether N-14)
6 | 108 | CCC(C)[C@@H]1NC(=O)[C@H](Cc2ccc(-c3ccccc3)cc2)NC(=O)[C@H](C(C)C)NC(=O)[C@H](Cc2c[nH]c3ccccc23)NC(=O)[C@H](CC(=O)O)NC(=O)[C@H](Cc2ccc(OCC(=O)O)cc2)NC(=O)[C@H](C(C)O)NC(=O)CSC[C@@H](C(=O)N[C@@H](CCCN)C(=O)N[C@@H](CO)C(=O)NCCCCCCCCCCCC(=O)O)NC(=O)[C@H](C(C)O)NC(=O)[C@H](C(C)C)NC(=O)[C@H](CC2CCCCC2)NC(=O)[C@H](CCN)NC(=O)[C@@H](CC(C)C)NC(=O)[C@H](C)N(C)C1=O (stereo partly drawn) [Example 2410] ({CH2CO}-[Thr(3ξ)]Y(Carboxymethyl)DWV[Bip][Ile(3ξ)][NMeA][dL][Dab][Cha]V[Thr(3ξ)]C[Orn]S[12Ado]-OH; thioether N-14)

Same assay, conditions: PE-labeled PD-L1-Ig 20 nM final, Jurkat-hPD-1 cells; read-out: Jurkat HPD1 PDL1 IC50

Row | IC50 [nM] | SMILES
7 | 8.6 | Cc1cccc(C[C@@H]2NC(=O)[C@H](CC(=O)O)NC(=O)[C@H](Cc3ccc(C(=O)O)cc3)NC(=O)[C@H](C(C)O)NC(=O)CSC[C@@H](C(=O)N[C@@H](CCN)C(=O)NCCOCCOCC(=O)NCCOCCOCC(=O)NCCCCCCCCCCC(=O)O)NC(=O)[C@H](CCC(=O)O)NC(=O)[C@H](C(C)O)NC(=O)[C@H](CC3CCCCC3)NC(=O)[C@H](CCN)NC(=O)[C@@H](CC(C)C)NC(=O)[C@H](C)N(C)C(=O)[C@H](Cc3ccc(C(=O)O)cc3)NC(=O)[C@H](Cc3ccc(-c4ccccc4)cc3)NC(=O)[C@H](Cc3ccc(C(=O)O)cc3)NC2=O)c1 (stereo partly drawn) [Example 2528] ({CH2CO}-[Thr(3ξ)][Phe(4-COOH)]D[Phe(3-Me)][Phe(4-COOH)][Bip][Phe(4-COOH)][NMeA][dL][Dab][Cha][Thr(3ξ)]EC[Dab][AEEA][AEEA][Aun]-OH; thioether N-14)
8 | 15.5 | CCC(C)[C@@H]1NC(=O)[C@H](Cc2ccc(-c3ccccc3)cc2)NC(=O)[C@H](C(C)C)NC(=O)[C@H](Cc2c[nH]c3ccccc23)NC(=O)[C@H](CC(=O)O)NC(=O)[C@H](Cc2ccc(C(=O)O)cc2)NC(=O)[C@H](Cc2cnc[nH]2)NC(=O)CSC[C@@H](C(=O)N[C@@H](CCN)C(=O)NCCOCCOCC(=O)NCCCCCCCCCCCCC(=O)O)NC(=O)[C@H](CCC(=O)O)NC(=O)[C@H](C(C)(C)O)NC(=O)[C@H](CC2CCCCC2)NC(=O)[C@H](CCN)NC(=O)[C@@H](CC(C)C)NC(=O)[C@H](C)N(C)C1=O (stereo partly drawn) [Example 2631] ({CH2CO}-H[Phe(4-COOH)]DWV[Bip][Ile(3ξ)][NMeA][dL][Dab][Cha][Val(3-OH)]EC[Dab][AEEA]-{NH(CH2)12COOH}; thioether N-14)
9 | 16.8 | CC(=O)NCCCC[C@@H]1NC(=O)[C@H](Cc2ccc(-c3ccccc3)cc2)NC(=O)[C@H](CC(C)C)NC(=O)[C@H](Cc2c[nH]c3ccccc23)NC(=O)[C@H](CC(=O)O)NC(=O)[C@H](Cc2ccc(OCC(=O)O)cc2)NC(=O)[C@H](Cc2ccc(OCC(=O)O)cc2)NC(=O)CSC[C@@H](C(=O)NCCOCCOCC(=O)NCCCCCCCCCCC(=O)O)NC(=O)[C@H](CO)NC(=O)[C@H](C(C)C)NC(=O)[C@H](CC2CCCCC2)NC(=O)[C@H](CCN)NC(=O)[C@@H](CC(C)C)NC(=O)[C@H](C)N(C)C1=O [Example 2438] ({CH2CO}-Y(Carboxymethyl)Y(Carboxymethyl)DWL[Bip]K(Ac)[NMeA][dL][Dab][Cha]VSC[AEEA][Aun]-OH; thioether N-14)

Reference: patent publication US20260070945A1, “MACROCYCLIC IMMUNOMODULATORS” (Bristol-Myers Squibb Company, priority 2022, published 2026)
